Values quoted from earlier work, collected in US20150216850A1 (priority 2012, published 2015).

How the values were obtained:
[1] = tested on: Huntington's disease patients
[2] = tested on: Huntington's disease patients; settings: twice-daily doses of 45 mg over 12 weeks
[3] = tested on: patients with HD

CCCN1CCC(c2cccc(S(C)(=O)=O)c2)CC1 [pridopidine]
tertiary endpoint UHDRS-TMS and individual items within the mMS (gait, dysarthria) ([1]; 45 mg daily or 90 mg daily for 6 months): statistically significant effect
primary endpoint: effect on subset of motor symptoms defined in the mMS ([1]; 45 mg daily or 90 mg daily, at 26 weeks): not met
effect on total motor function [2]: significant effect
symptomatic relief (hand movements, gait and balance) [3]: significant symptomatic relief
